Measured values from paper PMC8896685 (PLoS ONE, 2022).
Numbered stars: 1 amine (or outer) side, 2 acyl side, 3 side chain; on linkers, the order of the positions; unused ones are H or OH. Square brackets hold non-standard residues; d marks the D form. Side chains are listed from the residue outwards. Peptide text beside a SMILES is read from it. * marks the point of attachment. C18 diacid = O=C(O)CCCCCCCCCCCCCCCCC(=O)*; γGlu = O=C(O)[C@H](CCC(=O)[*:2])N[*:1]; Desaminohistidyl = O=C(CCc1c[nH]cn1)*; Ac4c = NC1(C(=O)O)CCC1; AEEA = NCCOCCOCC(=O)O; Aib = CC(C)(N)C(=O)O

Columns and labels:
Mouse GLP-1R = target: T1, Mouse GLP-1R (Mus musculus, UniProt O35659); experiment: Receptor binding, SPA competitive binding assay; details: SPA competitive binding on BHK cell membranes, [125I]-GLP-1(7–36)-NH2 tracer, 1% species specific plasma, 2 h 30°C; value (95% CI)
T1 construct: a plasmid encoding either the glucagon receptor or the GLP-1 receptor from the relevant species; expressed in transfected cells
T1 sequence (O35659 22-463): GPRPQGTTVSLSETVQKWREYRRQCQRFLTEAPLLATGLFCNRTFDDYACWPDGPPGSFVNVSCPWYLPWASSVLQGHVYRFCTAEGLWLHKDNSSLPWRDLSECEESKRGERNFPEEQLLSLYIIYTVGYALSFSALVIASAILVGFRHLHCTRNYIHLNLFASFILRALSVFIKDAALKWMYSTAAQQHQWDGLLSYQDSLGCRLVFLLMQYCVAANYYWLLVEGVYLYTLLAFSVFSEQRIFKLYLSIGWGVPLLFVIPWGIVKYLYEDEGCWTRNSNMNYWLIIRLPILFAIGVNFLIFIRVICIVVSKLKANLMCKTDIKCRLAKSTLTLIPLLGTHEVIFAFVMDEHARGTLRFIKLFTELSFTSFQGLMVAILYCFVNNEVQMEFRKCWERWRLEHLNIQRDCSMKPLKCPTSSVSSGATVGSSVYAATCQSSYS
Experimental: (§1) The binding assay was performed on cell membranes in the presence of 1% (v/v) species-specific heparin-treated pooled plasma (Bioreclamation IVT, Westbury, NY) diluted in assay buffer (50 mM HEPES supplemented with 5 mM EGTA, 5 mM MgCl2, and 0.005% (v/v) Tween 20, pH7.4). […] Cells stably expressing an individual receptor of interest were grown at 5% CO2, 37°C in DMEM (supplemented with 10% FCS, 0.5 mg/ml G418 and 0.3 mg/ml hygromycin). Membrane preparations were made from cells harvested at approximately 80% confluence, washed and homogenized in 20 mM HEPES with 0.1 mM EDTA, pH 7.4. Protein concentration was determined, and the membranes were stored at -80°C until use. The membrane binding assay was performed in a 96-well OptiPlate (PerkinElmer) in a total volume of 200 μl. Test compounds were dissolved in 80% DMSO and further diluted in assay buffer. 50 μl of diluted plasma was added to the assay plate wells followed by addition of test compounds (25 μl), cell membranes (50 μl, 0.06 mg/ml), SPA beads (20 mg/ml in assay buffer) and radioligand (60,000 cpm/well, corresponding to 0.06 nM; 2200 Ci/mmol. Each assay plate was incubated for 2 h at 30°C, centrifuged at 1500 rpm for 10 minutes and counted in a TopCount NXT instrument (PerkinElmer).
(§2) For the receptor binding assays, logIC50 values were calculated using non-linear regression analysis. The error estimation was reported as the 95% confidence interval. […] The calculations were performed in GraphPad Prism 6.4 (GraphPad, San Diego, CA) and error estimation was expressed as the 95% confidence interval. […] Averages, error estimation, ratios and plasma shifts were all calculated on logIC50 or logEC50 values and transformed to the anti-log values for reporting purposes.

Rat GLP-1R = target: T2, Rat GLP-1R (Rattus norvegicus, UniProt P32301); experiment: Receptor binding, SPA competitive binding assay; details: SPA competitive binding on BHK cell membranes, [125I]-GLP-1(7–36)-NH2 tracer, 1% species specific plasma, 2 h 30°C; value (95% CI)
T2 construct: a plasmid encoding either the glucagon receptor or the GLP-1 receptor from the relevant species; expressed in transfected cells
T2 sequence (P32301 22-463): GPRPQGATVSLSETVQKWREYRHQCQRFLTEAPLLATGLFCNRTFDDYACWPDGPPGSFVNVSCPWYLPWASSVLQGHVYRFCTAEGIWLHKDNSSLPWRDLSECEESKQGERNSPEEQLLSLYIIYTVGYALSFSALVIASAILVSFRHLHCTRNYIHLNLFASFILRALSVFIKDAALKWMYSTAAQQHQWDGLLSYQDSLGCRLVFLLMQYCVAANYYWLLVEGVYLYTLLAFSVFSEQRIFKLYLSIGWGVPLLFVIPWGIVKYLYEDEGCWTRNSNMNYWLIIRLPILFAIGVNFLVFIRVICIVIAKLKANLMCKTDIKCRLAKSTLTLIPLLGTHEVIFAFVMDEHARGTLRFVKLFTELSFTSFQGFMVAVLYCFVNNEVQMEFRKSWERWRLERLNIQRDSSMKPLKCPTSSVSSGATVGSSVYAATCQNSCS
Experimental: as §1, §2

DIO mice = experiment: Subchronic effect on glucose tolerance in DIO mice (IPGTT at steady state); assay type: in vivo, mouse
Experimental: Compound exposure was measured by Luminescence Oxygen Channeling Immunoassay (LOCI). […] The three reactants were combined with the analyte and formed a two-sited immuno-complex. Illumination of the complex released singlet oxygen […] from the donor beads. They were channeled into the acceptor beads and triggered a chemiluminescence response which was measured in an EnVision plate reader (PerkinElmer). The amount of light was proportional to the concentration of the analyte. As calibrators, a dilution line of the relevant analyte in rat/mouse plasma was included.
Animals were fasted for 5–6 h prior to intraperitoneal (i.p.) injection of 2 g/kg glucose. Blood glucose was analysed on whole blood from the tail vein of conscious animals using a Biosen S-line glucose analyzer (EKF-diagonistic Gmbh, Barleben, Germany) by the glucose oxidase method, at basal and at t = 15, 30, 60, 90, 180 min post glucose administration.
DIO mice received s.c. injections once daily for 4–5 weeks. Animals were dosed at different times of day to allow for assessment of glucose tolerance and other metabolic parameters at same time of day but at different time points in relation to dosing. […] Body composition was assessed in conscious animals by Magnetic Resonance (MR) scanning prior to initiation of treatment and at the end of the treatment period. Steady-state plasma parameters were assessed in non-fasted animals. Additional DIO mice (n = 4) were included for verification of 24-h peptide exposure in steady state. The mice received s.c. doses daily for 2 weeks (13 days) with 3 nmol/kg NN1177; 5 nmol/kg NN1151 or 5 nmol/kg NN1359, where after plasma sampled after t = 5 h (NN1177) or 6 h (NN1151, NN1359), 10 h (all co-agonists) and 24 h (all co-agonists) post-dosing was analysed for exposure.
Analogues were tested for subchronic effect in two different set-ups. […] The Cmax and Cmin animals were included in separate treatment groups and evaluated head-to-head for glucose tolerance and additional metabolic parameters at the end of the treatment period. […] IPGTT was performed as described above, but additionally blood was sampled from vena facialis of conscious animals at t = 210 min relative to the administration of glucose for exposure analysis.
IPGTT was performed as described above.

[1] = steady state 5 weeks, 3 and 5 nmol/kg, Cmax (5 h post dosing), p<0.001
[2] = steady state, after 3 weeks daily s.c. dosing, Cmax (5 h post dosing), p<0.001
[3] = steady state, after 4 weeks daily s.c. dosing, Cmin (24 h post dosing)
[4] = steady state, after 4 weeks daily s.c. dosing, Cmin (24 h post dosing), p<0.001

IC50 (Mouse GLP-1R) [nM]	IC50 (Rat GLP-1R) [nM]	SMILES	Glucose tolerance (IPGTT) vs vehicle (DIO mice; steady state 5 weeks, 3 nmol/kg, Cmin (24 h post dosing), p<0.001)	Glucose tolerance (IPGTT) vs vehicle (DIO mice; steady state 5 weeks, 5 nmol/kg, Cmin (24 h post dosing))	Basal blood glucose vs vehicle (DIO mice; [1])	Glucose tolerance (IPGTT) vs vehicle (DIO mice; [1])	Basal blood glucose vs vehicle (DIO mice; steady state 5 weeks, Cmin (24 h post dosing), p<0.001)	Glucose tolerance (IPGTT) vs vehicle (DIO mice; [2])	Basal blood glucose vs vehicle (DIO mice; [3])	Glucose tolerance (IPGTT) vs vehicle (DIO mice; [4])
0.11	0.17	CC(C)C[C@H](NC(=O)[C@H](Cc1ccc(O)cc1)NC(=O)[C@H](CCCCN)NC(=O)[C@H](CO)NC(=O)[C@H](CC(C)C)NC(=O)[C@H](CC(=O)O)NC(=O)[C@H](CO)NC(=O)[C@@H](NC(=O)[C@H](Cc1ccccc1)NC(=O)[C@@H](NC(=O)CNC(=O)[C@H](CCC(N)=O)NC(=O)C(C)(C)NC(=O)[C@@H](N)Cc1c[nH]cn1)[C@@H](C)O)[C@@H](C)O)C(=O)N[C@@H](CCC(=O)O)C(=O)N[C@@H](CO)C(=O)N[C@@H](CCCCN)C(=O)N[C@@H](CCCNC(=N)N)C(=O)N[C@@H](C)C(=O)N[C@@H](CCCNC(=N)N)C(=O)N[C@@H](CCC(=O)O)C(=O)N[C@@H](Cc1ccccc1)C(=O)N[C@H](C(=O)N[C@@H](CCC(N)=O)C(=O)N[C@@H](Cc1c[nH]c2ccccc12)C(=O)N[C@@H](CC(C)C)C(=O)N[C@@H](CC(C)C)C(=O)N[C@@H](CCCCNC(=O)CC[C@H](NC(=O)CC[C@H](NC(=O)[C@H](CO)NC(=O)[C@H](CCC(=O)O)NC(=O)[C@H](CO)NC(=O)CC[C@H](NC(=O)CC[C@H](NC(=O)CCCCCCCCCCCCCCCCC(=O)O)C(=O)O)C(=O)O)C(=O)O)C(=O)O)C(=O)N[C@H](C(N)=O)[C@@H](C)O)C(C)C [NN1177] (H-H[Aib]QGTFTSDLSKYLESKRAREFVQWLLK([γGlu-γGlu-Ser-Glu-Ser-γGlu-γGlu-C18 diacid])T-NH2)	impaired	at the level of vehicle	improved	improved	improved	–	–	–
0.37	2.06	CC[C@H](C)[C@H](NC(=O)[C@H](Cc1ccccc1)NC(=O)[C@H](CCC(=O)O)NC(=O)[C@H](CCCNC(=N)N)NC(=O)[C@H](C)NC(=O)[C@H](C)NC(=O)[C@H](CCC(N)=O)NC(=O)[C@H](CCC(=O)O)NC(=O)[C@H](CCC(=O)O)NC(=O)[C@H](CC(C)C)NC(=O)[C@H](Cc1ccc(O)cc1)NC(=O)[C@H](CCCCN)NC(=O)[C@H](CO)NC(=O)[C@@H](NC(=O)[C@H](CC(=O)O)NC(=O)[C@H](CO)NC(=O)[C@@H](NC(=O)[C@H](Cc1ccccc1)NC(=O)[C@@H](NC(=O)CNC(=O)[C@H](Cc1c[nH]cn1)NC(=O)C(C)(C)NC(=O)CCc1c[nH]cn1)[C@@H](C)O)[C@@H](C)O)C(C)C)C(=O)N[C@@H](C)C(=O)N[C@@H](Cc1c[nH]c2ccccc12)C(=O)N[C@@H](CC(C)C)C(=O)N[C@@H](CC(C)C)C(=O)N[C@@H](CCCCNC(=O)COCCOCCNC(=O)COCCOCCNC(=O)CC[C@H](NC(=O)CC[C@H](NC(=O)CCCCCCCCCCCCCCCCC(=O)O)C(=O)O)C(=O)O)C(=O)N[C@H](C(N)=O)[C@@H](C)O [NN1359] (Desaminohistidyl-[Aib]HGTFTSDVSKYLEEQAAREFIAWLLK([AEEA-AEEA-γGlu-γGlu-C18 diacid])T-NH2)	–	–	–	–	–	significantly improved	significantly improved	significantly improved

SMILES	IC50 (Mouse GLP-1R) [nM]	IC50 (Rat GLP-1R) [nM]	Glucose tolerance (IPGTT) vs vehicle (DIO mice; steady state 5 weeks, 3 nmol/kg, Cmin (24 h post dosing), p<0.001)	Glucose tolerance (IPGTT) vs vehicle (DIO mice; steady state 5 weeks, 5 nmol/kg, Cmin (24 h post dosing))	Basal blood glucose vs vehicle (DIO mice; [1])	Glucose tolerance (IPGTT) vs vehicle (DIO mice; [1])	Basal blood glucose vs vehicle (DIO mice; steady state 5 weeks, Cmin (24 h post dosing), p<0.001)	Glucose tolerance (IPGTT) vs vehicle (DIO mice; [2])	Basal blood glucose vs vehicle (DIO mice; [3])	Glucose tolerance (IPGTT) vs vehicle (DIO mice; [4])
CC(C)C[C@H](NC(=O)[C@H](CC(=O)O)NC(=O)[C@H](CC(C)C)NC(=O)[C@H](Cc1ccc(O)cc1)NC(=O)[C@H](CCCCN)NC(=O)[C@H](CO)NC(=O)[C@H](CC(C)C)NC(=O)[C@H](CC(=O)O)NC(=O)[C@H](CO)NC(=O)[C@@H](NC(=O)[C@H](Cc1ccccc1)NC(=O)[C@@H](NC(=O)CNC(=O)[C@H](CCC(N)=O)NC(=O)C1(NC(=O)[C@@H](N)Cc2c[nH]cn2)CCC1)[C@@H](C)O)[C@@H](C)O)C(=O)N[C@@H](CCCNC(=N)N)C(=O)N[C@@H](CCCNC(=N)N)C(=O)N[C@@H](C)C(=O)N[C@@H](CCCNC(=N)N)C(=O)N[C@@H](CC(=O)O)C(=O)N[C@@H](Cc1ccccc1)C(=O)N[C@H](C(=O)N[C@@H](CCC(N)=O)C(=O)N[C@@H](Cc1c[nH]c2ccccc12)C(=O)N[C@@H](CC(C)C)C(=O)N[C@@H](CC(C)C)C(=O)N[C@@H](CCCCNC(=O)CC[C@H](NC(=O)CC[C@H](NC(=O)COCCOCCNC(=O)COCCOCCNC(=O)CC[C@H](NC(=O)CC[C@H](NC(=O)CCCCCCCCCCCCCCCCC(=O)O)C(=O)O)C(=O)O)C(=O)O)C(=O)O)C(=O)N[C@H](C(N)=O)[C@@H](C)O)C(C)C [NN1151] (H-H[Ac4c]QGTFTSDLSKYLDLRRARDFVQWLLK([γGlu-γGlu-AEEA-AEEA-γGlu-γGlu-C18 diacid])T-NH2)	1.87	1.72	–	–	–	–	–	improved	at the level of vehicle treated animals	significantly impaired
